Among the data in patent US9732075B2, “Benzimidazole-proline derivatives” (IDORSIA PHARMACEUTICALS LTD, priority 2012, dated 2017) are IC50 values, retold here.

One test deals with human orexin-1 receptor (Homo sapiens (Human), UniProt O43613). In words: In vitro assay: intracellular calcium measurements (FLIPR), antagonistic activity. The test is classed as cell-based. The conditions noted are these: CHO cells expressing human orexin-1 receptor, orexin-A agonist, geometric mean, read-out: IC50 Ox1. As to the method: (§1) In Vitro Assay: Intracellular Calcium Measurements:
(§2) Chinese hamster ovary (CHO) cells expressing the human orexin-1 receptor and the human orexin-2 receptor, respectively, are grown in culture medium (Ham F-12 with L-Glutamine) containing 300 μg/ml G418, 100 U/ml penicillin, 100 μg/ml streptomycin and 10% heat inactivated fetal calf serum (FCS). The cells are seeded at 20,000 cells/well into 384-well black clear bottom sterile plates (Greiner). The seeded plates are incubated overnight at 37° C. in 5% CO2.
(§3) Human orexin-A as an agonist is prepared as 1 mM stock solution in MeOH: water (1:1), diluted in HBSS containing 0.1% bovine serum albumin (BSA), NaHCO3: 0.375 g/l and 20 mM HEPES for use in the assay at a final concentration of 3 nM.
(§4) Antagonists are prepared as 10 mM stock solution in DMSO, then diluted in 384-well plates using DMSO followed by a transfer of the dilutions into in HBSS containing 0.1% bovine serum albumin (BSA), NaHCO3: 0.375 g/l and 20 mM HEPES. On the day of the assay, 50 μl of staining buffer (HBSS containing 1% FCS, 20 mM HEPES, NaHCO3: 0.375 g/l, 5 mM probenecid (Sigma) and […] of the fluorescent calcium indicator fluo-4 AM (1 mM stock solution in DMSO, containing 10% pluronic) is added to each well. The 384-well cell-plates are incubated for 50 min at 37° C. in 5% CO2 followed by equilibration at RT for 30 min before measurement.
(§5) Within the Fluorescent Imaging Plate Reader (FLIPR Tetra, Molecular Devices), antagonists are added to the plate in a volume of 10 μl/well, incubated for 120 min and finally 10 μl/well of agonist is added. Fluorescence is measured for each well at 1 second intervals, and the height of each fluorescence peak is compared to the height of the fluorescence peak induced by an approximate EC70 (for example 5 nM) of orexin-A with vehicle in place of antagonist. The IC50 value (the concentration of compound needed to inhibit 50% of the agonistic response) is determined and may be normalized using the obtained IC50 value of a on-plate reference compound. Optimized conditions are achieved by adjustment of pipetting speed and cell splitting regime. The calculated IC50 values may fluctuate depending on the daily cellular assay performance. Fluctuations of this kind are known to those skilled in the art. Average IC50 values from several measurements are given as geometric mean values.
(In general: A change in cytosolic calcium serves as a functional read-out for many receptors and channels.)

The next test concerns the target human orexin-2 receptor (Homo sapiens (Human), UniProt O43614). The test is described as above. The test is classed as cell-based. As to conditions: CHO cells expressing human orexin-2 receptor, orexin-A agonist, geometric mean, read-out: IC50 Ox2. As to the method:
as §1, §2, §3, §4, §5

human orexin-2 receptor, sequence (O43614 whole entry): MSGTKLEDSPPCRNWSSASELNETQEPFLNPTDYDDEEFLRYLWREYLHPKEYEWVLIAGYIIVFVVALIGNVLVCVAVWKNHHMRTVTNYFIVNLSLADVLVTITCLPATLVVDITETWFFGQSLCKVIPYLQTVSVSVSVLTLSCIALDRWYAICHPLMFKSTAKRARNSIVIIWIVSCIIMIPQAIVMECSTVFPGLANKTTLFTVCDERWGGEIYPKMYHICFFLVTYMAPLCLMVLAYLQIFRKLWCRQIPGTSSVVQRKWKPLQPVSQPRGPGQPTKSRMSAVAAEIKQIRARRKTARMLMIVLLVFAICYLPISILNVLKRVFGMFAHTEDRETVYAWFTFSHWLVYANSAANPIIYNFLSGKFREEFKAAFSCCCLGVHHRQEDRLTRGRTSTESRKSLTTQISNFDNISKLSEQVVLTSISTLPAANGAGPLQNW
human orexin-1 receptor, sequence (O43613 whole entry): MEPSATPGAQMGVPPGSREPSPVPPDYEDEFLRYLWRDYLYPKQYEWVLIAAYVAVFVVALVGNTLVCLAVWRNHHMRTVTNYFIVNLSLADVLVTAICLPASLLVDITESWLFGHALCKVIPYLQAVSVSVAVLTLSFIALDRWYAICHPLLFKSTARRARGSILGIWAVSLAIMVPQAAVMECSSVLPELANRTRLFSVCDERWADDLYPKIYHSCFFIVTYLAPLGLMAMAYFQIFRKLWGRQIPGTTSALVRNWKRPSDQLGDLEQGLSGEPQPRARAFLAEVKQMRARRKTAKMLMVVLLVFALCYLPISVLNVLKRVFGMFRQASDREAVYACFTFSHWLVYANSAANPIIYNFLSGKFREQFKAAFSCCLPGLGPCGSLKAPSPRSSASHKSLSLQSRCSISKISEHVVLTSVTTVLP

Consider `COc1cc2nc(C3CCCN3C(=O)c3nc(C)sc3-c3cccc(Cl)c3)[nH]c2cc1OC` (centres unmarked) [Ex. 1.110], for which the values for the IC50 at human orexin-1 receptor and on human orexin-2 receptor were 164 nM and 46 nM, respectively.
With `Cc1nc(C(=O)N2CCCC2c2nc3cc(C(F)(F)F)c(F)cc3[nH]2)c(-c2cccc(Cl)c2)s1` (centres unmarked) [Ex. 1.111], the IC50 (usually the concentration that inhibits the measured activity by half) on human orexin-1 receptor came to 32 nM; on human orexin-2 receptor it was 243 nM.
With `Cc1nc(C(=O)N2CCCC2c2nc3cc(F)c(Br)cc3[nH]2)c(-c2cccc(Cl)c2)s1` (centres unmarked) [Ex. 1.112], the IC50 on human orexin-1 receptor is 69 nM; at human orexin-2 receptor it was 289 nM.
On the same counts, the results for `Cc1nc(C(=O)N2CCCC2c2nc3cc(C(F)(F)F)c(Cl)cc3[nH]2)c(-c2cccc(Cl)c2)s1` (centres unmarked) [Ex. 1.113] are 5 nM and 58 nM.
For the compound `Cc1nc(C(=O)N2CCCC2c2nc3c(Br)cc(F)cc3[nH]2)c(-c2cccc(Cl)c2)s1` (centres unmarked) [Ex. 1.114], the IC50 is 30 nM at human orexin-1 receptor and 74 nM on human orexin-2 receptor.
With `Cc1nc(C(=O)N2CCCC2c2nc3c(C)c(C)ccc3[nH]2)c(-c2cccc(Cl)c2)s1` (centres unmarked) [Ex. 1.115], the IC50 on human orexin-1 receptor came out at 37 nM; on human orexin-2 receptor, 19 nM.
Taken in the same sequence, the figures for `Cc1nc(C(=O)N2CCCC2c2nc3c(C(C)C)cccc3[nH]2)c(-c2cccc(Cl)c2)s1` (centres unmarked) [Ex. 1.116] were 86 nM and 248 nM.
On the same counts, the results for `Cc1nc(C(=O)N2CCCC2c2nc3c(C(F)(F)F)cc(C(F)(F)F)cc3[nH]2)c(-c2ccccc2)s1` (centres unmarked) [Ex. 1.118] are 191 nM and 364 nM.
Taken in the same sequence, the figures for `Cc1nc(C(=O)N2CCCC2c2nc3cc(Cl)c(Cl)cc3[nH]2)c(-c2ccccc2)s1` (centres unmarked) [Ex. 1.119] were 27 nM and 77 nM.
With `Cc1nc(C(=O)N2CCCC2c2nc3cc(Br)ccc3[nH]2)c(-c2ccccc2)s1` (centres unmarked) [Ex. 1.120], the IC50 was 147 nM at human orexin-1 receptor and 557 nM at human orexin-2 receptor.
As to `Cc1nc(C(=O)N2CCCC2c2nc3cc(C(F)(F)F)ccc3[nH]2)c(-c2ccccc2)s1` (centres unmarked) [Ex. 1.121], the values for the IC50 at human orexin-1 receptor and at human orexin-2 receptor were 76 nM and 287 nM, respectively.
Regarding `Cc1nc(C(=O)N2CCCC2c2nc3cc(C)c(C)cc3[nH]2)c(-c2ccccc2)s1` (centres unmarked) [Ex. 1.122], the IC50 stood at 55 nM on human orexin-1 receptor and 45 nM at human orexin-2 receptor.
Taken in the same sequence, the figures for `Cc1nc(C(=O)N2CCCC2c2nc3c(C)cccc3[nH]2)c(-c2ccccc2)s1` (centres unmarked) [Ex. 1.123] were 147 nM and 70 nM.
In the case of `Cc1nc(C(=O)N2CCCC2c2nc3cc(C(C)(C)C)ccc3[nH]2)c(-c2ccccc2)s1` (centres unmarked) [Ex. 1.124], the values for the IC50 at human orexin-1 receptor and at human orexin-2 receptor were 119 nM and 42 nM, respectively.
Consider `Cc1nc(C(=O)N2CCCC2c2nc3c(Cl)cc(C(F)(F)F)cc3[nH]2)c(-c2ccccc2)s1` (centres unmarked) [Ex. 1.125], for which the IC50 at human orexin-1 receptor turned out to be 39 nM; on human orexin-2 receptor, 73 nM.
As to `Cc1nc(C(=O)N2CCCC2c2nc3cc(Cl)c(C)cc3[nH]2)c(-c2ccccc2)s1` (centres unmarked) [Ex. 1.126], the IC50 at human orexin-1 receptor was 18 nM; at human orexin-2 receptor, 24 nM.
As for `Cc1cc(C)c2nc(C3CCCN3C(=O)c3nc(C)sc3-c3ccccc3)[nH]c2c1` (centres unmarked) [Ex. 1.127], the IC50 worked out at 33 nM on human orexin-1 receptor and 22 nM on human orexin-2 receptor.
In the case of `Cc1nc(C(=O)N2CCCC2c2nc3c(CO)cccc3[nH]2)c(-c2ccccc2)s1` (centres unmarked) [Ex. 1.128], the IC50 at human orexin-1 receptor came to 1480 nM; at human orexin-2 receptor it was 331 nM.
Regarding `Cc1nc(C(=O)N2CCCC2c2nc3c(C(F)(F)F)cccc3[nH]2)c(-c2ccccc2)s1` (centres unmarked) [Ex. 1.129], the figures for the IC50 on human orexin-1 receptor and at human orexin-2 receptor were 93 nM and 124 nM, respectively.
Take `Cc1nc(C(=O)N2CCCC2c2nc3c(Br)cccc3[nH]2)c(-c2ccccc2)s1` (centres unmarked) [Ex. 1.130]: the IC50 was 113 nM on human orexin-1 receptor and 75 nM at human orexin-2 receptor.
Turning to `Cc1nc(C(=O)N2CCCC2c2nc3cc(Br)cc(C)c3[nH]2)c(-c2ccccc2)s1` (centres unmarked) [Ex. 1.131], the IC50 at human orexin-1 receptor was 37 nM; at human orexin-2 receptor it was 48 nM.
Turning to `Cc1nc(C(=O)N2CCCC2c2nc3cc(OC(F)(F)F)ccc3[nH]2)c(-c2ccccc2)s1` (centres unmarked) [Ex. 1.132], the IC50 at human orexin-1 receptor amounted to 90 nM; at human orexin-2 receptor, 614 nM.
For `Cc1nc(C(=O)N2CCCC2c2nc3c(C)c(Cl)ccc3[nH]2)c(-c2ccccc2)s1` (centres unmarked) [Ex. 1.133], the IC50 on human orexin-1 receptor worked out at 4 nM; at human orexin-2 receptor, 11 nM.
In the case of `COc1cc2nc(C3CCCN3C(=O)c3nc(C)sc3-c3ccccc3)[nH]c2cc1OC` (centres unmarked) [Ex. 1.134], the IC50 at human orexin-1 receptor was 116 nM; at human orexin-2 receptor, 26 nM.
Turning to `Cc1nc(C(=O)N2CCCC2c2nc3cc(C(F)(F)F)c(F)cc3[nH]2)c(-c2ccccc2)s1` (centres unmarked) [Ex. 1.135], the values for the half-maximal inhibitory concentration (IC50) at human orexin-1 receptor and at human orexin-2 receptor were 32 nM and 194 nM, respectively.
Turning to `Cc1nc(C(=O)N2CCCC2c2nc3cc(F)c(Br)cc3[nH]2)c(-c2ccccc2)s1` (centres unmarked) [Ex. 1.136], the IC50 amounted to 81 nM at human orexin-1 receptor and 278 nM at human orexin-2 receptor.
Consider `Cc1nc(C(=O)N2CCCC2c2nc3cc(C(F)(F)F)c(Cl)cc3[nH]2)c(-c2ccccc2)s1` (centres unmarked) [Ex. 1.137], for which the IC50 at human orexin-1 receptor worked out at 4 nM; on human orexin-2 receptor, 33 nM.
Regarding `Cc1nc(C(=O)N2CCCC2c2nc3c(Br)cc(F)cc3[nH]2)c(-c2ccccc2)s1` (centres unmarked) [Ex. 1.138], the figures for the IC50 at human orexin-1 receptor and at human orexin-2 receptor were 35 nM and 109 nM, respectively.
Turning to `Cc1nc(C(=O)N2CCCC2c2nc3c(C)c(C)ccc3[nH]2)c(-c2ccccc2)s1` (centres unmarked) [Ex. 1.139], the IC50 at human orexin-1 receptor was 103 nM; on human orexin-2 receptor, 26 nM.
`Cc1nc(C(=O)N2CCCC2c2nc3c4c(ccc3[nH]2)OCCO4)c(-c2ccccc2)s1` (centres unmarked) [Ex. 1.140]: the IC50 on human orexin-1 receptor came to 192 nM; at human orexin-2 receptor, 46 nM.
Turning to `COc1ccc2[nH]c(C3CCCN3C(=O)c3cc(C)ccc3-n3nccn3)nc2c1` (centres unmarked) [Ex. 1.141], the IC50 on human orexin-1 receptor was 507 nM; on human orexin-2 receptor, 13 nM.
For `Cc1cc(C)c2nc([C@@H]3CCCN3C(=O)c3nc(C)sc3-c3ccccc3)[nH]c2c1` [Ex. 1.142], the IC50 on human orexin-1 receptor was 24 nM; at human orexin-2 receptor, 13 nM.
As for `Cc1nc(C(=O)N2CCC[C@H]2c2nc3cc(Cl)c(C)cc3[nH]2)c(-c2ccccc2)s1` [Ex. 1.143], the figures for the IC50 at human orexin-1 receptor and on human orexin-2 receptor were 14 nM and 16 nM, respectively.
On the same counts, the results for `Cc1nc(C(=O)N2CCC[C@H]2c2nc3c(C)cc(Br)cc3[nH]2)c(-c2ccccc2)s1` [Ex. 1.144] are 33 nM and 27 nM.
For `Cc1nc(C(=O)N2CCC[C@H]2c2nc3c(C)c(Cl)ccc3[nH]2)c(-c2ccccc2)s1` [Ex. 1.145], the results for the IC50 on human orexin-1 receptor and at human orexin-2 receptor were 3 nM and 7 nM, respectively.
For the compound `Cc1nc(C(=O)N2CCC[C@H]2c2nc3cc(Cl)c(C(F)(F)F)cc3[nH]2)c(-c2ccccc2)s1` [Ex. 1.146], the IC50 on human orexin-1 receptor amounted to 7 nM; on human orexin-2 receptor, 23 nM.
Turning to `CSc1ccc2nc([C@@H]3CCCN3C(=O)c3cc(F)ccc3-n3nccn3)[nH]c2c1` [Ex. 1.147], the IC50 at human orexin-1 receptor is 685 nM; at human orexin-2 receptor it was 24 nM.
Taken in the same sequence, the figures for `CSc1ccc2nc([C@@H]3CCCN3C(=O)c3c(F)cccc3-n3nccn3)[nH]c2c1` [Ex. 1.148] were 1170 nM and 44 nM.
As to `CSc1ccc2nc([C@@H]3CCCN3C(=O)c3cc(Cl)ccc3-n3nccn3)[nH]c2c1` [Ex. 1.149], the IC50 is 143 nM at human orexin-1 receptor and 9 nM on human orexin-2 receptor.
In the case of `COc1ccc(-n2nccn2)c(C(=O)N2CCC[C@H]2c2nc3ccc(SC)cc3[nH]2)c1` [Ex. 1.150], the IC50 on human orexin-1 receptor is 301 nM; on human orexin-2 receptor, 11 nM.
Taken in the same sequence, the figures for `CSc1ccc2nc([C@@H]3CCCN3C(=O)c3cc(C(F)(F)F)ccc3-n3nccn3)[nH]c2c1` [Ex. 1.151] were 763 nM and 110 nM.
On the same counts, the results for `CSc1ccc2nc([C@@H]3CCCN3C(=O)c3cc(C#N)ccc3-n3nccn3)[nH]c2c1` [Ex. 1.152] are 282 nM and 23 nM.
Take `CSc1ccc2nc([C@@H]3CCCN3C(=O)c3ccc(C)cc3-n3nccn3)[nH]c2c1` [Ex. 1.153]: the results for the IC50 on human orexin-1 receptor and on human orexin-2 receptor were 40 nM and 3 nM, respectively.
In the case of `CSc1ccc2nc([C@@H]3CCCN3C(=O)c3c(C)cccc3-n3nccn3)[nH]c2c1` [Ex. 1.154], the IC50 at human orexin-1 receptor stood at 483 nM; at human orexin-2 receptor, 21 nM.
On to `COc1cc(C(=O)N2CCC[C@H]2c2nc3ccc(SC)cc3[nH]2)c(-n2nccn2)cc1OC` [Ex. 1.155], for which the IC50 at human orexin-1 receptor was found to be 36 nM; at human orexin-2 receptor, 16 nM.
On to `COc1ccc2nc([C@@H]3CCCN3C(=O)c3cc(F)ccc3-n3nccn3)[nH]c2c1` [Ex. 1.156], for which the IC50 is 1810 nM on human orexin-1 receptor and 29 nM at human orexin-2 receptor.
